Patent EP3871678A1, “PRO-ANGIOGENIC COMPOUNDS” (UNIVERSITE DE BORDEAUX, priority 2020, dated 2021)

How the values were obtained:
[1] = test system: CAM of chick embryos (Gallus gallus); assay: Chick chorioallantoic membrane (CAM) angiogenesis assay; format: in vivo; settings: 20 µl of 500 µg/ml in DMEM on day 13 and 14, evaluated day 17, versus DMEM control
Description: The angiogenesis assay was performed on the CAM of chick embryos (Gallus gallus) (E.A.R.L. Morizeau, Dangers, France). Embryos were incubated at 37°C and 70% humidity to […]. On day 3 of development, 3-5 ml of egg white was withdrawn by punctuating the air chamber with the syringe, and a window was made by cutting the eggshell and sealed with Durapore® tape. On day 13, prepared plastic rings (made from Nunc Thermanox® coverslips, diameter 13 mm and thickness 0.2mm) were placed on the intact CAM. 20 µl of the molecule (concentration 500 µg/ml in DMEM medium) or an equivalent volume of DMEM alone as control were deposited in the center of the plastic rings. The treatment was repeated the following day followed by photo documentation (day 14). On day 17, the eggs were fixed by addition of 2 ml of 4% paraformaldehyde (Antigenfix) for 30 min at room temperature. Imaging was performed with a stereomicroscope (Nikon SMZ800) using a digital camera (Nikon Coolpix 950). The images were scored for morphological changes of blood capillaries such as sprouting and tortuosity (0=normal, 1=overrepresented) by five observers using a blinded screening test (data not shown).
The angiogenic response was evaluated on day 17 based on two morphological parameters: sprouting, and presence of tortuous vessels (data not shown). […]

[2] = test system: blood vessels; assay: In vivo angiogenesis around subcutaneously injected hydrogels (CD31 immunostaining, blood vessel count); settings: hydrogel injected subcutaneously in mice, day 21, CD31 immunostaining, four random regions
Description: (§1) 10-week-old OF-1 female mice (Charles Rivers, France) were used for this study. Before the bilateral subcutaneous injection of hydrogels, mice were anaesthetized using 4.5% isoflurane gas and maintained throughout surgery at 2.5% isoflurane with a face mask. The animals were depilated before surgery. The three different hydrogels were prepared as mentioned above and collected in 1 ml syringes, when the solution was in viscous form. The hydrogels were injected subcutaneously by 21-gauge needle on the dorsal side of the animals.
Subcutaneous injection was carried out, as indicated in example 3, in order to characterize the behavior of the hydrogels after subcutaneous injection and in situ gelation. Animals were sacrificed by cervical dislocation one or three weeks after injection of the hydrogel. The biomaterials (i.e. hydrogel) together with the skin surrounding the injection point were harvested after 7, or 21 days and embedded in paraffin. Histological sections of skin portions associated to the hydrogel were then stained to assess the degradation pattern, cell infiltration (data not shown) and angiogenesis.
The blood vessels in and around the hydrogels 21 days after implantation were identified by immunolabelling with rabbit anti-CD31 antibody (Abcam, ref ab28364 dilution:1/100) followed by incubation with HRP-conjugated anti-rabbit secondary antibody (Vector MP-7401, dilution:1/2)
During the regeneration process, the development of neovessels in the remodeling tissue is of major importance. Therefore, immunostaining of CD31, an endothelial cell marker, was performed on day 21 to assess angiogenesis.
CD31 positive cells were not found inside the hydrogels, showing that the non-degraded hydrogels were bad substrates for blood vessel ingress. Figure 11B depicts the quantification of blood vessels counted manually per 0.2mm^2 at four different random regions in the tissue surrounding each hydrogel. […]

[3] = In vivo toxicity after subcutaneous injection of hydrogels (serum ALT, AST, LDH); design: species or system OF-1 female mice; settings: hydrogels injected subcutaneously in mice, serum markers up to day 21
Description: as §1
The in vivo toxicity of the hydrogels formed from compounds 17, 20 and GNF was investigated by serum biochemical evaluation such as alanine aminotransferase (ALT Activity Assay Kit, Sigma-Aldrich, ref MAK052), aspartate aminotransaminase (AST Activity Assay Kit, Sigma-Aldrich, ref MAK055), and lactate dehydrogenase (LDH Assay Kit, Abcam, ref ab102526). At day 0 before surgery and three-time points after implantation (3, 7, and 21 days), blood was collected from retro-orbital sinus. The blood samples were allowed to clot then followed by centrifugation to collect the serum. The serum was used for analysis as recommended by the manufacturers.

[4] = In vitro degradation of the hydrogels (weight loss in PBS); format: physicochemical; settings: hydrogel 1.5% (w/v), PBS 1X, after 3 weeks at 37°C
Description: Hydrogels were prepared with compound 17, compound 20, GNF at a concentration of 1.5% (w/v) by dissolving the powder in sterile phosphate buffered saline solution (PBS 1X, pH 7.4). The suspensions were heated at 65 °C for GNF and 80°C for the compounds 17 and 20. The GNF solution was incubated at 37 °C for 30 min to form a gel, whereas the other molecules formed the gel within 5 min.
Hydrogels were also prepared from compound A, which was used as a control.
Hydrogel disks (100 µl) were prepared and were incubated in 7 ml of PBS 1X at 37°C for 21 days. All the hydrogel samples were weighed before incubating with the phosphate buffer (initial weight). The samples were removed at different time points (1, 2, 3, 5, 7, 15, and 21 days), weighed immediately after removing the excess of PBS by gently touching the surface of a tissue (Kimwipes™) and put back in the same solution of PBS.
The degradation was monitored by measuring the weight loss of the gels after different periods of incubation. After 3 weeks at 37°C, the remaining weights were 65 ± 4 %, 63 ± 1 %, and 55 ± 2 %, for GNF, compound 17 and compound 20, respectively, as shown on Figure 3..

[5] = MALDI-TOF analysis of degradation products released by the hydrogels in PBS; settings: hydrogel, 21-day incubation in PBS at 37°C, MALDI-TOF of the buffer
Description: The degradation products generated during the 21-day incubation of the samples was determined by analyzing the PBS solution in which they were incubated. At day 21 the PBS was collected and analyzed for the degradation products of individual hydrogels by using mass spectroscopy. Studies, performed in triplicates, allowed for the calculation of degradation kinetics.
In order to assess the fragmentation of the molecules during incubation, the by-products of degradation present in the buffer were analysed by MALDI-TOF (Matrix Assisted Laser Desorption Ionization - Time of Flight) mass spectrometry at the end of the experiment (21 days) (Figures 4 and 5).
The analyses were carried out on the MALDI-TOF-TOF Ultraflex (Bruker) in positive reflector mode (detection of positively charged species in the form of [M + H] + and [M + Na] + ions).The external calibration of the spectrometer was carried out with a mixture of components in the mass range m / z 700-2500. The matrix used is a solution of 2,4,6 trihydroxyacetophenone at 20 mg / ml in EtOH / NH4 citrate 25 mM. The samples were diluted by a factor of 50 in water before MS analysis.

Cc1cn([C@H]2C[C@H](O)[C@@H](CO)O2)c(=O)n(Cc2cn([C@@H]3O[C@H](CO)[C@@H](O)[C@H](O)[C@H]3O)nn2)c1=O [GN-1, N-3-[1-((β-D-Glucopyranoside)-1H-1,2,3-triazol-4-yl)methyl] thymidine]
sprouting ([1]; p = 0.0046 (Fisher's exact test)): more CAMs that were treated with GN-1 exhibited sprouting and tortuous vessels | tortuous vessels ([1]; p = 0.0195 (Fisher's exact test)): more CAMs that were treated with GN-1 exhibited sprouting and tortuous vessels

1,14-bis-tetradecanyl-5'-[(4-methylamide)-1H-1,2,3-triazol-1-yl]-N-3-[1-((β-D-glucopyranoside)-1H-1,2,3-triazole-4-yl)methyl]-5'-deoxy thymidine [compound 20]
numbers of blood vessels (bv) in the vicinity of the hydrogel [2]: 7.95 ± 0.74 bv/0.2 mm2 | toxicity to the vital organs [3]: did not show any toxicity to the vital organs

Cc1cn([C@H]2C[C@H](O)[C@@H](Cn3cc(CNC(=O)CCC(F)(F)C(F)(F)C(F)(F)C(F)(F)C(F)(F)C(F)(F)C(F)(F)C(F)(F)F)nn3)O2)c(=O)n(Cc2cn([C@@H]3O[C@H](CO)[C@@H](O)[C@H](O)[C@H]3O)nn2)c1=O [GNF]
remaining weights [4]: 65 ± 4% | numbers of blood vessels (bv) in the vicinity of the hydrogel [2]: 6.10 ± 1.07 bv/0.2 mm2 | toxicity to the vital organs [3]: did not show any toxicity to the vital organs | fragmentation of the molecules during incubation (degradation products) [5]: fragmentations of the hydrogel molecules as a result of degradation

Cc1cn([C@H]2C[C@H](O)[C@@H](Cn3cc(CNC(=O)NCCCCCCCCCCCCNC(=O)NCc4cn(C[C@H]5O[C@@H](n6cc(C)c(=O)n(Cc7cn([C@@H]8O[C@H](CO)[C@@H](O)[C@H](O)[C@H]8O)nn7)c6=O)C[C@@H]5O)nn4)nn3)O2)c(=O)n(Cc2cn([C@@H]3O[C@H](CO)[C@@H](O)[C@H](O)[C@H]3O)nn2)c1=O [compound 17, 1,12-bis-dodecanyl-5'-[(4-methylurea)-1H-1,2,3-triazol-1-yl]-N-3-[1-((β-D-glucopyranoside)-1H-1,2,3-triazole-4-yl)methyl]-5'-deoxy thymidine]
numbers of blood vessels (bv) in the vicinity of the hydrogel [2]: 4.30±0.41 bv/0.2 mm2 | toxicity to the vital organs [3]: did not show any toxicity to the vital organs | fragmentation of the molecules during incubation (degradation products) [5]: fragmentations of the hydrogel molecules as a result of degradation
